The values below come from ChEMBL document CHEMBL5120815, “Synthesis of novel dual target inhibitors of PARP and EGFR and their antitumor activities in triple negative breast cancers” (Bioorg Med Chem, 2022).

Each structure is given as a SMILES string. The source made the active and inactive calls. The rule behind the calls is not given here. Some results are limits rather than exact numbers.

In assay [1] the test system is MCF7. The assay can be described thus: Cytotoxicity against human MCF7 cells harbouring wild type BRCA1/2 assessed as inhibition of cell growth at 25 uM incubated for 48 hrs by MTT assay relative to control. The assay is classed as functional.
Assay [2] concerns MCF7. The assay can be described thus: Synergistic cytotoxicity against human MCF7 cells harbouring wild type BRCA1/2 assessed as combination index at 25 uM incubated for 48 hrs in presence of 0.8 uM adriamycin by MTT assay. The assay is classed as functional. (Tetrazolium dyes change colour on reduction, which living cells bring about.)
The subject of a further assay is HCC1937. Nature of the assay: Cytotoxicity against human HCC1937 cells assessed as inhibition of cell growth incubated for 48 hrs by MTT assay. In kind it is functional, cell-based. The settings on record: HCC1937, 48 h.
In assay [3] the test system is MCF7. Nature of the assay: Potentiation of adriamycin-induced cytotoxicity in human MCF7 cells harbouring wild type BRCA1/2 assessed as inhibition of cell growth at 25 uM incubated for 48 hrs in presence of 0.8 uM adriamycin by MTT assay relative to control. In kind it is functional.
For assay [4], the system named is MCF7. Nature of the assay: Cytotoxicity against human MCF7 cells harbouring wild type BRCA1/2 assessed as inhibition of cell growth incubated for 48 hrs by MTT assay. The assay is classed as functional, cell-based. The settings on record: MCF7, 48 h.
Another assay deals with MX1. Nature of the assay: Cytotoxicity against human MX1 cells harbouring BRCA1 mutant assessed as inhibition of cell growth incubated for 48 hrs by MTT assay. The assay is classed as functional, cell-based. The settings on record: MX1, 48 h.
A further assay has as its system SK-BR-3. Nature of the assay: Cytotoxicity against human SK-BR-3 cells harbouring wild type BRCA1/2 assessed as inhibition of cell growth incubated for 48 hrs by MTT assay. The assay is classed as functional, cell-based. The settings on record: SK-BR-3, 48 h.
The next assay concerns MDA-MB-231. The assay can be described thus: Cytotoxicity against human MDA-MB-231 cells assessed as inhibition of cell growth incubated for 48 hrs by MTT assay. In kind it is functional, cell-based. The note with it: MDA-MB-231, 48 h.
The target of assay [5] is Epidermal growth factor receptor (Homo sapiens) (UniProt P00533). Nature of the assay: Inhibition of human EGFR in human HCC1937 cells assessed as reduction in phosphorylated EGFR level at 10 uM incubated for 48 hrs by Western blot analysis. The assay is classed as cell-based. On the technique in general: Immunoblotting shows a protein as a band on a membrane.
For another assay, the system named is MDA-MB-468. Nature of the assay: Cytotoxicity against human MDA-MB-468 cells assessed as inhibition of cell growth incubated for 48 hrs by MTT assay. The settings on record: MDA-MB-468, 48 h. The assay is classed as functional, cell-based.
Assay [6] deals with Poly [ADP-ribose] polymerase 1 (Homo sapiens) (UniProt P09874). Nature of the assay: Inhibition of PARP-1 in human MCF7 cells assessed as inhibition of PARylation by measuring reduction in PARP protein expression at 1 uM pretreated with adriamycin followed by compound addition and measured after 48 hrs by Western bot analysis. In kind it is cell-based.
Assay [7] concerns the target Epidermal growth factor receptor (Homo sapiens) (UniProt P00533). The assay can be described thus: Inhibition of human EGFR in human HCC1937 cells assessed as reduction in EGFR level at 10 uM incubated for 48 hrs by Western blot analysis. In kind it is cell-based.
In assay [8] the target is Poly [ADP-ribose] polymerase 1 (Homo sapiens) (UniProt P09874). The assay can be described thus: Inhibition of PARP-1 (unknown origin) at 0.1 uM preincubated for 10 mins followed by PARP cocktail addition and measured after 60 mins by colorimetric assay relative to control. The note with it: time 70.0 min.
Assay [9] concerns MCF7. Nature of the assay: Cytotoxicity against human MCF7 cells harbouring wild type BRCA1/2 assessed as inhibition of cell growth at 10 uM incubated for 48 hrs by MTT assay relative to control. In kind it is functional.
Assay [10] concerns MCF7. Nature of the assay: Potentiation of adriamycin-induced cytotoxicity in human MCF7 cells harbouring wild type BRCA1/2 assessed as inhibition of cell growth at 10 uM incubated for 48 hrs in presence of 0.8 uM adriamycin by MTT assay relative to control. In kind it is functional.
Assay [11] concerns MCF7. Nature of the assay: Synergistic cytotoxicity against human MCF7 cells harbouring wild type BRCA1/2 assessed as combination index at 10 uM incubated for 48 hrs in presence of 0.8 uM adriamycin by MTT assay. The assay is classed as functional.
Assay [12] has as its system MCF7. Nature of the assay: Potentiation of adriamycin-induced cytotoxicity in human MCF7 cells harbouring wild type BRCA1/2 assessed as inhibition of cell growth at 17.5 uM incubated for 48 hrs in presence of 0.8 uM adriamycin by MTT assay relative to control. In kind it is functional.
Assay [13] relates to MCF7. The assay can be described thus: Synergistic cytotoxicity against human MCF7 cells harbouring wild type BRCA1/2 assessed as combination index at 17.5 uM incubated for 48 hrs in presence of 0.8 uM adriamycin by MTT assay. In kind it is functional.
The subject of assay [14] is MCF7. The assay can be described thus: Cytotoxicity against human MCF7 cells harbouring wild type BRCA1/2 assessed as inhibition of cell growth at 17.5 uM incubated for 48 hrs by MTT assay relative to control. The assay is classed as functional.

Epidermal growth factor receptor (Homo sapiens), sequence (P00533 whole entry): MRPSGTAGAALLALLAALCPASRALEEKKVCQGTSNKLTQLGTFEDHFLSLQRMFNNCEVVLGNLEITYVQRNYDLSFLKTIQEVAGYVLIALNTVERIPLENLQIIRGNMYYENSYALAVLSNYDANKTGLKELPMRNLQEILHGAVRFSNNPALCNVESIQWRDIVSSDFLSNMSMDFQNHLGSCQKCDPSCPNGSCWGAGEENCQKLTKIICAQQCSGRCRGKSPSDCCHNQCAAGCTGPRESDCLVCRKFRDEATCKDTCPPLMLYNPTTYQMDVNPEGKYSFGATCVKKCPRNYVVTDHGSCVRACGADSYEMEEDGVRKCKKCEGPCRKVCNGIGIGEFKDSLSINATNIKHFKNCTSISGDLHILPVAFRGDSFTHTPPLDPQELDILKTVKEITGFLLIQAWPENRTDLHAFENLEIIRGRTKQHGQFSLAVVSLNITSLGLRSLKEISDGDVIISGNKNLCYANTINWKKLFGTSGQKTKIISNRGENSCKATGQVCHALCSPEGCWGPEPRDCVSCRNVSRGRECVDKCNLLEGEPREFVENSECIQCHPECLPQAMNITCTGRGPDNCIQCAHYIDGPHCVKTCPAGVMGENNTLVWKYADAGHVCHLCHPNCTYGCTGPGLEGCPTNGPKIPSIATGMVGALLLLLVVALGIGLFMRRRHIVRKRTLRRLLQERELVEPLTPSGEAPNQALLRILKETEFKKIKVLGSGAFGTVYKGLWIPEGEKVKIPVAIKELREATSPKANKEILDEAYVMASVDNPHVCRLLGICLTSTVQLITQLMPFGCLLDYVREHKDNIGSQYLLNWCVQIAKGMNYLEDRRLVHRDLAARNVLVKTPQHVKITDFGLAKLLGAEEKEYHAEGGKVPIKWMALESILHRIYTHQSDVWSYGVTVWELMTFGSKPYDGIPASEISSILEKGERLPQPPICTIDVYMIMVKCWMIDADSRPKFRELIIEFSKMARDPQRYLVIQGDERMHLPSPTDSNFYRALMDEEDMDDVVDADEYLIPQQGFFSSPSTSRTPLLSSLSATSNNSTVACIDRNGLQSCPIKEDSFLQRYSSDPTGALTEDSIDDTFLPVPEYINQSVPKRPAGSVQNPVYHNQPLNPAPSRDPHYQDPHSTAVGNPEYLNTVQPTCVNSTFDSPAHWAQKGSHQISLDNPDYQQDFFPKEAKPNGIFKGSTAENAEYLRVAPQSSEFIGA
Poly [ADP-ribose] polymerase 1 (Homo sapiens), sequence (P09874 whole entry): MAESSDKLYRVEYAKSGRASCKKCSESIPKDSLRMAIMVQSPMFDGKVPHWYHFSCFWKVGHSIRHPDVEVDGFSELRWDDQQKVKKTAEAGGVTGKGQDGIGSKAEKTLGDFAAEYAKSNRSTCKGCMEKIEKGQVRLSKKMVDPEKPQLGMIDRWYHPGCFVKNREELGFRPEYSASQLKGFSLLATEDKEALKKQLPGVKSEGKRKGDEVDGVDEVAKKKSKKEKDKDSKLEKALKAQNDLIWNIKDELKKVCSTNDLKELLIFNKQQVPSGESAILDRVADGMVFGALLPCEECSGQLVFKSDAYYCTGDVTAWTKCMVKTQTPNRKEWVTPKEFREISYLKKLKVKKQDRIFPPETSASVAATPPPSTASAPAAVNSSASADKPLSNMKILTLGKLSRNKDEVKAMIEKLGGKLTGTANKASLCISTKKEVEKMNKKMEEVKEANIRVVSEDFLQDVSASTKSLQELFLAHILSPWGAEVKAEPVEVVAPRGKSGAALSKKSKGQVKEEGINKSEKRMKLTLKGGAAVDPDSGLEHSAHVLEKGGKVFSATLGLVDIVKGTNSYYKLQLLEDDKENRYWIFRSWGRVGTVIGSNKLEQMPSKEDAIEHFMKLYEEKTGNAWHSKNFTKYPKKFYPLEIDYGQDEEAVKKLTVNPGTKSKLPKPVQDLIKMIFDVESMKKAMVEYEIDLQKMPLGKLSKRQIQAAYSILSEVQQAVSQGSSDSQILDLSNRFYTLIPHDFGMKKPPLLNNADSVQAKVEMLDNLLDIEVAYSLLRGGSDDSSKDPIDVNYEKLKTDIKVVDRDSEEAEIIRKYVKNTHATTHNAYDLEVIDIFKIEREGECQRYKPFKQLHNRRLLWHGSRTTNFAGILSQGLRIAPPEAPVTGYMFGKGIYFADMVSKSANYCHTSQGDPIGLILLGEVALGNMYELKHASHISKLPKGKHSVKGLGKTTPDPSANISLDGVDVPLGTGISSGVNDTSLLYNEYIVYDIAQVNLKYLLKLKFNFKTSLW

Broadly, the inhibition is the drop in the measured response relative to a control, in per cent. In general, IC50 refers to the concentration at which inhibition is half-maximal. Take `CCCN(CCC)c1ncc2c(n1)CCN(C(=O)c1cc(Cc3n[nH]c(=O)c4ccccc34)ccc1F)C2`: the inhibition at 25 µM worked out at 11.9% in the assay on MCF7 [1] and 36.6% in the assay with MCF7 [3]. Further, the CI in the assay with MCF7 [2] worked out at 0.36. In addition, the IC50 is 20.3 µM in the assay with HCC1937; 126 µM in the assay with MCF7 [4]; 92.9 µM in the assay on MX1; over 200 µM with SK-BR-3; over 200 µM with MDA-MB-231.
Consider `O=C(c1cc(Cc2n[nH]c(=O)c3ccccc23)ccc1F)N1CCc2nc(N3CCOCC3)ncc2C1`, for which the values for the inhibition at 25 µM in the assay with MCF7 [1] and in the assay on MCF7 [3] were 18.6% and 47.8%, respectively. Moreover, the CI in the assay with MCF7 [2] was 0.39. In addition, the IC50 in the assay on HCC1937 is 3.23 µM; in the assay with MDA-MB-468, 15.6 µM; in the assay on MCF7 [4] it was 199 µM; with MX1 it was 18.7 µM; in the assay on SK-BR-3 it was 50 µM; with MDA-MB-231 it was over 200 µM. Further, the inhibition result in [5], in [6] and in [7] was “Active” in each case. Moreover, the inhibition in assay [8] was found to be 92.1%.
`CCCCN(CCCC)c1ncc2c(n1)CCN(C(=O)c1cc(Cc3n[nH]c(=O)c4ccccc34)ccc1F)C2`: the values for the inhibition at 25 µM with MCF7 [1] and in the assay with MCF7 [3] were 27.4% and 39.6%, respectively. For the same compound, the CI with MCF7 [2] is reported as 0.79. Besides, the IC50 was over 200 µM in the assay on HCC1937; 106 µM with MCF7 [4]; 13.3 µM in the assay with MX1; 21.2 µM in the assay on SK-BR-3; over 200 µM with MDA-MB-231.
On to `CN(C)CCN(C)c1ncc2c(n1)CCN(C(=O)c1cc(Cc3n[nH]c(=O)c4ccccc34)ccc1F)C2`, for which the inhibition at 25 µM was 24.6% in the assay on MCF7 [1] and 43.9% in the assay on MCF7 [3]. In the assay on MCF7 [2], the CI is reported as 0.86. Besides, the IC50 in the assay on HCC1937 was over 200 µM; in the assay on MCF7 [4], 122 µM; in the assay on MX1 it was 66.9 µM; with SK-BR-3, over 200 µM; in the assay on MDA-MB-231, over 200 µM.
Regarding `CCN(CC)c1ncc2c(n1)CCN(C(=O)c1cc(Cc3n[nH]c(=O)c4ccccc34)ccc1F)C2`, the IC50 with HCC1937 is 66.8 µM; in the assay on MCF7 [4], 55.8 µM; with MX1, 28.4 µM; in the assay with SK-BR-3, over 200 µM; with MDA-MB-231, over 200 µM. The inhibition at 10 µM was found to be 21.6% in the assay with MCF7 [9] and 37.5% in the assay on MCF7 [10]. In addition, the CI in the assay on MCF7 [11] was found to be 0.82.
Consider `O=C(c1cc(Cc2n[nH]c(=O)c3ccccc23)ccc1F)N1CCc2nc(N3CCCC3)ncc2C1`, for which the inhibition at 25 µM in the assay on MCF7 [1] came out at 24.9%; with MCF7 [3] it was 40.9%. The CI in the assay with MCF7 [2] worked out at 0.61. Besides, the half-maximal inhibitory concentration (IC50) in the assay on HCC1937 was 7.81 µM; in the assay on MCF7 [4], 144 µM; in the assay with MX1, 77 µM; in the assay with SK-BR-3, over 200 µM; in the assay with MDA-MB-231, over 200 µM.
Regarding `CCN1CCN(c2ncc3c(n2)CCN(C(=O)c2cc(Cc4n[nH]c(=O)c5ccccc45)ccc2F)C3)CC1`, the inhibition at 25 µM in the assay on MCF7 [1] is 9.13%; in the assay with MCF7 [3] it was 45.7%. Besides, in the assay on MCF7 [2], the CI was found to be 0.2. Moreover, the IC50 in the assay on HCC1937 was 137 µM; in the assay on MCF7 [4], 90.1 µM; in the assay on MX1, 88.8 µM; in the assay on SK-BR-3, over 200 µM; with MDA-MB-231, over 200 µM.
Regarding `CN1CCN(c2ncc3c(n2)CCN(C(=O)c2cc(Cc4n[nH]c(=O)c5ccccc45)ccc2F)C3)CC1`, the inhibition at 25 µM with MCF7 [1] is 37.4%; in the assay with MCF7 [3] it was 55.8%. Further, in the assay with MCF7 [2], the CI was determined as 0.67. The IC50 in the assay on HCC1937 was 53.4 µM; in the assay on MCF7 [4], 72.8 µM; in the assay on MX1 it was 46.3 µM; in the assay on SK-BR-3, 95.7 µM; with MDA-MB-231, over 200 µM.
For `O=C(c1cc(Cc2n[nH]c(=O)c3ccccc23)ccc1F)N1CCc2nc(N3CCCCC3)ncc2C1`, the IC50 in the assay on HCC1937 was over 200 µM; with MCF7 [4], 89.8 µM; in the assay on MX1, 22.7 µM; with SK-BR-3, 24.5 µM; with MDA-MB-231, over 200 µM. Besides, the results for the inhibition at 17.5 µM in the assay with MCF7 [12] and in the assay on MCF7 [14] were 43% and 18.9%, respectively. In addition, the CI in the assay on MCF7 [13] is reported as 0.44.
For `O=C(c1cc(Cc2n[nH]c(=O)c3ccccc23)ccc1F)N1CCN(C(=O)C2CC2)CC1` [OLAPARIB], the inhibition at 25 µM in the assay on MCF7 [1] amounted to 23.5%; in the assay on MCF7 [3], 27.9%. Besides, in the assay with MCF7 [2], the CI was found to be 0.88. For the same compound, the IC50 with HCC1937 was over 200 µM; in the assay with MDA-MB-468, 200 µM; with MCF7 [4] it was 409 µM; in the assay on MDA-MB-231 it was over 200 µM.
